The values below come from US5635510A, “Substituted pyrrolidin-3-yl-alkyl-piperidines” (Merrell Pharmaceuticals Inc., priority 1994, dated 1997).

Experiment [1] deals with T1, human jejunal NK2 receptor (Homo sapiens, UniProt P21452).
T1 construct: expressed in transfected cells; host or cells: HSKR-1 cells (mouse 3T3 fibroblasts)
T1 sequence (P21452 1-398): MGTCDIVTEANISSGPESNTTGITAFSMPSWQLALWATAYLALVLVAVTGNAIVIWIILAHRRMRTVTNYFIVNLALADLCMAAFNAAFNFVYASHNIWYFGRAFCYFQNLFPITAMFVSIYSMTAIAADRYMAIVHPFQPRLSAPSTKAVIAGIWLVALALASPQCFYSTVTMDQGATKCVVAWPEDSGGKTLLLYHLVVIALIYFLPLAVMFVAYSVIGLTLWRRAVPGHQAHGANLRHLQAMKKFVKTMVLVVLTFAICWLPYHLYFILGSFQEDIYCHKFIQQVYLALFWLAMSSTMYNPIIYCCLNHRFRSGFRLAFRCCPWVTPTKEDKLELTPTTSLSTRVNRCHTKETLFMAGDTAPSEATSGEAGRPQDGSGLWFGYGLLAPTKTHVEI
Nature of the experiment: Antagonism of iodinated neurokinin A binding to NK2 receptor, HSKR-1 cells (mouse 3T3 fibroblasts expressing the human jejunal NK2 receptor). To be noted: NK-2 IC50, HSKR-1 cells, 125I-neurokinin A, mean of several experiments. Here is the method: (§1) ANTAGONISM OF IODINATED TACHYKININ BINDING TO NK1 AND NK2
(§2) RECEPTORS BY PUTATIVE ANTAGONISTS
(§3) The NK1 receptor affinity of proposed tachykinin antagonists was evaluated in guinea pig lungs (Keystone Biologicals, Cleveland, OH), affinity for the NK2 receptor evaluated in HSKR-1 cells (which are mouse 3T3 fibroblasts expressing the human jejunal NK2 receptor) and NK-3 receptor affinity was evaluated in freshly collected guinea pig cerebral cortex. Tissues or cells were homogenized with a Polytron in 15 volumes of 50 mM Tris-HCl buffer (pH 7.4, 4° C.) and centrifuged. The pellet was resuspended in Tris-HCl buffer and was centrifuged; the pellet was washed twice by resuspension. The final pellet was resuspended at a concentration of 40 mg/ml for tissues (guinea pig lung and cerebral cortex) and 20 mg/ml for cells in incubation buffer and remained at room temperature for at least 15 min prior to use. Receptor binding was initiated by addition of 250 ul membrane preparation in duplicate to 0.1 nM of the following radioligands: ^125 I-Bolton Hunter Lys-3 labeled substance P; ^125 iodohistidyl-1-neurokinin A; and ^125 I-Bolton Hunter labeled Lys-4 eledoisin in a final volume of 500 ul of buffer containing 50 mM Tris-HCl (pH 7.4 at room temperature), 0.1% bovine serum albumin, 2 mM MnCl2, 40 ug/ml bacitracin, 4 μg/ml leupeptin and chymostatin, 1 μM thiorphan and various doses of the putative tachykinin antagonists. Incubations were performed at room temperature for 90 min (NK1 receptor assays) or 2 hr (NK2 and NK3 receptor assays); binding was terminated by addition of 50 mM Tris-HCl buffer (pH 7.4, 4° C.) and filtration under vacuum through GF/B filters presoaked with 0.1% polyethyleneimine (NK1 receptor assays) or 0.5% bovine serum albumin (NK2 and NK3 receptor assays). Filter bound radioactivity was quantitated in a gamma counter. Nonspecific binding was defined as binding in the presence of 1 μM substance P, neurokinin A, or eledoisin. Specific binding was calculated by subtracting nonspecific binding from total binding. Competition of iodinated SP, NKA, or eledoisin binding by test compounds or standards was expressed as a percentage of this maximum competition. IC50 values (concentration required to inhibit 50% of receptor binding) were generated for each of the test compounds by nonlinear regression using an iterative curve fitting program (GraphPAD Inplot, San Diego, Calif.).

Experiment [2] has as its target T2, NK1 receptor (Cavia porcellus, UniProt P30547).
T2 construct: evaluated in guinea pig lungs; tissue Keystone Biologicals, Cleveland, OH; host or cells: guinea pig lung
Nature of the experiment: Antagonism of iodinated substance P binding to NK1 receptor, guinea pig lung. Particulars: NK-1 IC50, guinea pig lung, 125I-substance P, mean of several experiments. Here is the method: as §1, §2, §3

Experiment [3] concerns the target T3, NK-3 receptor (Cavia porcellus, UniProt P30098).
T3 construct: evaluated in freshly collected guinea pig cerebral cortex; from tissue; host or cells: guinea pig cerebral cortex
T3 sequence (P30098 1-440): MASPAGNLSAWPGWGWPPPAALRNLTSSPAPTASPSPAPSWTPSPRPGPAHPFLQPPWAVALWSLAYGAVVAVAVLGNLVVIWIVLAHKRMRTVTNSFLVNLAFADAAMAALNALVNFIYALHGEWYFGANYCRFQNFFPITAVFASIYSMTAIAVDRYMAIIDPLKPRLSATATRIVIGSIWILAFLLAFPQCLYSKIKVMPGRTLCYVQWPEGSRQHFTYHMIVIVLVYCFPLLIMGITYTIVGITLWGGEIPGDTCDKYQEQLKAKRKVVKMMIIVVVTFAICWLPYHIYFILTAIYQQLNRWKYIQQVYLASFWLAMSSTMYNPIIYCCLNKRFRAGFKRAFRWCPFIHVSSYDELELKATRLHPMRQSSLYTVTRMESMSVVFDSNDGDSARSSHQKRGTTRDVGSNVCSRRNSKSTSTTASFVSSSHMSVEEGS
The experiment in a line: Antagonism of iodinated eledoisin binding to NK3 receptor, guinea pig cerebral cortex. Particulars: NK-3 IC50, guinea pig cerebral cortex, 125I-eledoisin, mean of several experiments. Here is the method:
as §1, §2
as §3, with “Nonspecific binding was defined as binding in the presence of 1 μM substance P, neurokinin A, or eledoisin.” left out, “IC50 values (concentration required to inhibit 50% of receptor binding) were generated for each of the test compounds by nonlinear regression using an iterative curve fitting program (GraphPAD Inplot, San Diego, Calif.).” left out

T2 sequence (P30547 whole entry): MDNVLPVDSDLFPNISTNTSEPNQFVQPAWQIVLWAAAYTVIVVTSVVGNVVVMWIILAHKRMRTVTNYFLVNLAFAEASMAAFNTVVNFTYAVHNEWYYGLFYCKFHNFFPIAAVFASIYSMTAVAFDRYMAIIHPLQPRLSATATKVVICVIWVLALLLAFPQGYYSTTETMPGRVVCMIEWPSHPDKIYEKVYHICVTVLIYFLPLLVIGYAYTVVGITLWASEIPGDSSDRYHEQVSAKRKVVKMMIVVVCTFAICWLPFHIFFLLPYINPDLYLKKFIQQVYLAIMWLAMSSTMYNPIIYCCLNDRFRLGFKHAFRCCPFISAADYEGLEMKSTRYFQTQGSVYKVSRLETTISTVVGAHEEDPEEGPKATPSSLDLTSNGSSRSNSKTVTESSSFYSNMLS

For orientation: IC50 means the concentration needed to halve the response being measured. Low readings indicate greater potency, high ones weaker potency. As to `COc1cc(C(=O)N2CCC(CCN3CCC(C(N)=O)(c4ccccc4)CC3)(c3ccc(Cl)c(Cl)c3)C2)cc(OC)c1OC` (single isomer, unassigned; (-)) [Example 21, (-)-1-[2-[3-(3,4-dichlorophenyl)-1-(3,4,5-trimethoxy-benzoyl)-pyrrolidin-3-yl]-ethyl]-4-phenyl-piperidine-4-carboxylic acid amide], the half-maximal inhibitory concentration (IC50) was determined as 760 nM in experiment [1], 183 nM in experiment [2] and 2300 nM in experiment [3].
